The source of these data is patent US7291451B2, “Modulation of pericyte proliferation” (XOMA Technology Ltd., priority 2000, dated 2007).

The test system of experiment [1] is Bovine retinal pigment epithelial cells (RPEC). As to the kind of experiment: Cell growth assay in bovine retinal pigment epithelial cells. It is filed as cell-based. The settings on record: 15 μg/ml. The procedure: (§1) A cell growth assay was performed as follows: Cells were plated onto 12-well culture plates and incubated overnight. The cells were treated with vehicle, vascular endothelial growth factor (VEGF, R & D Systems, Minneapolis, Minn.) at 25 ng/ml, serum, compounds, or combinations thereof. The medium is changed during the incubation period, with fresh medium and fresh test compound added every 2 days. After incubation for indicated time period at 37° C., the cells were lysed in 0.1% SDS and DNA content was measured by means of Hoechst-33258 dye and a fluorometer (model TKO-100, Hoefer Scientific Instruments, San Francisco, Calif.). It has been shown that total cellular DNA content measured in this manner correlates closely with actual cell number as determined by hemocytometer counting of trypsinized cells.
Bovine retinal pigment epithelial cells (RPEC) were isolated by gentle scraping after removal of the neural retina and incubation with 0.2% collagenase as described in King et al., Diabetes, 1987, 36:1460-7. RPEC were cultured in DMEM with 5.5 mM glucose and 10% calf serum (CS, Gibco BRL, Grand Island, N.Y.). Cells were cultured in 5% CO2 at 37° C., and media were changed every other days. Cells were characterized for their homogeneity by immunoreactivity with anti-cytokeratin antibody for RPEC. […]

In experiment [2] the test system is ischemia-induced retinal neovascularization. Briefly: Ischemia-induced retinal neovascularization in neonatal mice. The class given is in vivo. The text has this:
To produce ischemia-induced retinal neovascularization, litters of 7-day-old (postnatal day 7, P7) C57BL/6J mice and their nursing mothers were exposed to 75±2% oxygen for 5 days and then returned to ambient air at age P12 as described in Smith et al., Invest. Ophthalmol. Vis. Sci., 1994, 35:101-111. […] Control animals received saline. After sacrifice and enucleation, flat-mounted, fluorescein-conjugated dextran-perfused retinas were examined to assess the retinal vasculature. This mouse model reflects the effects of hypoxia on inducing angiogenesis in the retina. After birth, the mice are exposed to a high level oxygen for 4-5 days. The effect of high levels of oxygen will decrease or prevent the growth of blood vessels in the retina. Once the mice have been removed from the hyperoxic condition to normal oxygen levels, the retina will develop hypoxia due to the lack of blood vessels. The hypoxia in the retina will induce many growth factors (including VEGF) which leads to a angiogenic response that can be quantitated by measuring the number of nuclei in the blood vessels above the internal limiting membrane. This mouse model of angiogenesis is thought to be a good animal reflection of retinopathy of prematurity. The main growth factor responsible for retinal angiogenesis in this mouse model is thought to be due to the expression of VEGF. […] These neovascular rufts were most prominent on P17-19, but after P23 the neovascularization regressed, and the vascular pattern normalized by P26. As described in Aiello et al., Proc. Nat'l Acad. Sci. USA, 1995, 92:10457-61, mice at P17 (n=5) were deeply anesthetized with pentobarbitol sodium (100 mg/kg) and sacrificed by cardiac perfusion with 4% paraformaldehyde in phosphate-buffered saline. Eyes were enucleated and fixed in 4% paraformaldehyde at 4° C. overnight, and enbedded in paraffin. Over 50 serial sections (6 μm) including optic nerve head were placed on microscope slides. After staining with periodic acid/Schiff reagent and hematoxylin, 10 intact sections of equal length, each 30 μm apart, were evaluated for a span of 300 μm. All retinal vascular cell nuclei anterior to the internal limiting membrane were counted in each section by a fully masked protocol. The mean of all 10 counted sections yielded average neovascular cell nuclei per 6 μm section per eye. No vascular cell nuclei anterior to the internal limiting membrane are observed in normal unmanipulated animals.

Experiment [3] has as its system human retinal pericytes (HRPC). Briefly: Human retinal pericyte proliferation assay (Methylene blue, OD650). It is filed as cell-based. As to conditions: 5% FBS. The procedure:
In addition to studies with primary cell cultures of bovine retinal pericytes described above, experiments were performed with a human cell line obtained from Clonetics (San Diego, Calif.) of retinal pericytes (catalog no. CC-2542 PyCRt). These human retinal pericytes (HRPC) were cultured in Dulbecco's modified Eagle's medium (DMEM, Gibco BRL, Grand Island, N.Y.) with 5.6 mM glucose and 20% fetal bovine serum (FBS, Gibco BRL, Grand Island, N.Y.).
Proliferation assays were performed as follows: HRPC were plated onto 24-well culture plates (3000 cells/well) in 5 or 10% FBS-DMEM with 5.6 mM glucose and incubated overnight. The cells were treated once with vehicle alone or with vehicle and several concentrations of XMP.627 ([SEQ ID NO: 4]), XMP.664 ([SEQ ID NO: 5]), XMP.679 ([SEQ ID NO: 3]), or XMP.728 ([SEQ ID NO: 6]) for 5 or 6 days. The medium was not changed, nor were additional amounts of test compounds added as described in the experiments of part A above. The cells were fixed and stained with Methylene blue and proliferation assayed by observation at OD650.

The subject of experiment [4] is bovine retinal endothelial cells (BREC). Briefly: Cell growth assay (DNA content) in bovine retinal endothelial cells. The class given is cell-based. The protocol:
Primary cultures of bovine retinal endothelial cells (BREC) were isolated by homogenization and a series of filtration steps as described in King et al., J. Clin. Invest., 1985, 75:1028-36. BREC were subsequently cultured with endothelial cell basal medium (EBM; Clonetics, San Diego, Calif.). supplemented with 10% plasma-derived horse serum (PDHS), 50 mg/l heparin, and 50 μg/ml endothelial cell growth factor (ECGF, Roche, Indianapolis, Ind.). Cells were characterized for homogeneity by their immunoreactivity with anti-factor VIII antibody. Cells remained morphologically unchanged under these conditions, as confirmed by light microscopy. Only cells from passages 2 through 7 were used for the experiments.
as §1
Determinations were performed in triplicate and all experiments were repeated at least three times. Results are expressed as the mean ±standard deviation, unless otherwise indicated. Statistical analysis employed Student's t-test or analysis of variance to compare quantitative data populations with normal distributions and equal variance. Data were analyzed using the Mann-Whitney rank sum test or the Kruskal-Wallis test for populations with non-normal distributions or unequal variance. A P-value of <0.05 was considered statistically significant.

Experiment [5] has as its system MAP kinase phosphorylation. Briefly: MAP kinase phosphorylation in BRPC. The class given is cell-based, bovine. The settings on record: 5 μg/ml, 1 to 60 minutes. The protocol:
Experiments were also performed in which the level of MAP kinase phosphorylation was determined in BRPC treated with 75 μg/ml rBPI21 or 5 μg/ml XMP.679. […] These observations indicate that exemplary BPI protein products rBPI21 and, to a lesser extent, XMP.679, enhance MAP kinase phosphorylation in BRPC.

“XMP.679: BPI-derived peptide derived from BPI domain II, SEQ ID NO: 3 (KLFKAQAKAKG; XMP.679; listed as Homo sapiens)”: the growth promoting effect in experiment [1] was in the range of 20 to 30%. Further, the “decrease of number of nuclei anterior to the internal limiting membrane” value is 30 to 40% in experiment [2] (10 mg/kg daily intraperitoneal, p<0.001) and “approximately 71%” in experiment [2] (20 mg/kg daily intraperitoneal, p<0.01). In addition, the “retinal vasculature compared with control mice” value in experiment [2] (10 mg/kg intraperitoneal every 24 hrs P12 to P17) was “fewer blood vessels with much less density and tortuosity”. Besides, in experiment [2] (range of 10-20 mg/kg), the “inhibition of retinal neovascularization (dose response)” value is on record as “inhibits retinal neovascularization in a dose responsive manner”. Further, the “effect on HRPC growth” value in experiment [3] (10 μg/ml and higher) was “slight growth inhibitory effect”. The “concentration of maximum HRPC proliferation” value in experiment [3] is listed as “approximately 5 μg/ml”. For the same substance, the “effect on HRPC proliferation” value in experiment [3] (approximately 0.5, 1, 5, 8 μg/ml) is on record as “increased HRPC proliferation in a dose responsive manner”. The “effect on DNA content” value in experiment [4] (1 μg/ml compound, with and without VEGF) was “did not have a significant effect”. Moreover, the “effect on VEGF-dependent growth” value in experiment [4] (VEGF 25 ng/ml plus 1 μg/ml compound) was “had no effect”; in experiment [4] (VEGF 25 ng/ml plus 5 and 15 μg/ml compound), “totally prevented VEGF-dependent growth”. For the same substance, the effect on growth entry in experiment [4] (compound alone, 15 μg/ml, not statistically significant) is listed as “slight growth inhibitory effect”. In experiment [5], the “effect on MAP kinase phosphorylation” value is recorded as “increased MAP kinase phosphorylation over time”.
